These results are taken from PMC9552003, “Chemosensory protein 4 is required for Bradysia odoriphaga to be olfactory attracted to sulfur compounds released from Chinese chives” (Frontiers in Physiology, 2022).

One assay deals with recombinant BodoCSP4 (Bradysia odoriphaga, UniProt A0A2S0X9L0). Put plainly: biochemical. It is filed as binding. The method, then:
An F-380 fluorescence spectrophotometer (Tianjin, China) was used to measure the binding affinity of BodoCSP4 to the selected volatiles, using 1-N-phenyl-naphthylamine (1-NPN) as the fluorescent probe. […] Both 1-NPN and the volatile compounds were diluted in chromatographic-grade methanol to make 1 mM stock solutions. Recombinant BodoCSP4 was dissolved in 20 mM Tris-HCl (pH 7.4) and diluted to a 2 µM stock solution.

For assay [1], the system named is B. odoriphaga male adults. Also on record: method as in Zhang et al. (2021). The note with it: ref Zhang et al. (2021); cited from earlier work.
The subject of assay [2] is antennae of both male and female B. odoriphaga. Also on record: method as in Yang et al., 2019. The note with it: ref Yang et al., 2019; cited from earlier work.
In assay [3] the test system is B. odoriphaga male adults. Put plainly: Y-tube olfactometer assay after dsRNA injection. In kind it is in vivo, Bradysia odoriphaga. The note with it: for effect of silencing of BodoCSP4 on behavioral response of male adults to the ligand: RNAi, Y-tube olfaction assays; for behavioral response (attraction to ligand vs hexane control): n = 60, chi-square test. An excerpt: The primer pairs dsCSP4 and dsGFP, containing the T7 promoter sequence, are listed in Table 1, and the T7 RiboMAX ™ Express RNAi System was used to synthesize double stranded RNAs (dsRNAs). The dsRNAs were microinjected into 3-day-old pupae of B. odoriphaga, and newly eclosed male adults were selected for dsRNA extraction and behavioral assays as previously described ([Yang et al., 2021b]; [Zhang et al., 2021]). According to the fluorescence binding results, after BodoCSP4 was silenced, a Y-tube olfactometer was used to assess the behavioral responses of B. odoriphaga male adults to the ligands diallyl disulfide, methyl allyl disulfide, and n-heptadecane as described in our previous report ([Yang et al., 2019]). In brief, a 10-μL solution of diallyl disulfide, methyl allyl disulfide, or n-heptadecane in hexane was placed on a strip (4 × 40 mm) of filter paper; after 10 s, the strip was placed at the end of one of the two Y-tube arms. As a control, a hexane-treated filter paper strip was placed at the end of the other arm. Two streams of clean air were passed through the Y-tube arms to the base, and one adult male that had been previously injected (at the pupal stage, 12 h before emergence) with dsBodoCSP4 or dsGFP was placed in the base of the Y-tube. If the male adult moved at least half way up one of the Y-tube arms, the result was recorded and considered an indication of attraction or repulsion depending on which arm was selected. Each of six treatment combinations (3 host plant volatiles with controls and dsBodoCSP4 or dsGFP microinjected adults) are represented by 60 replicate assays.
All RT-qPCR experiments were analyzed using one-way ANOVA followed by Tukey-HSD tests with SPSS 20.0 software. All RT-qPCR experiments were conducted using three independent biological replicates. In each of the six Y-tube olfactometer assays (3 ligands and controls without ligand × two types of microinjected B. odoriphaga adult males), behavioral responses to filter paper with or without ligand were analyzed by a chi-square test (χ 2).

Assay [4] concerns B. odoriphaga male adults. Also on record: method as in Li H. J. et al., 2007. The note with it: extract from the abdomen of B. odoriphaga females; ref Li H. J. et al., 2007; cited from earlier work.
Where [5] appears, read: recombinant BodoCSP4, Supplemental Table 2, Ki, read-out: Ki.
Setting [6] is: Ki, recombinant BodoCSP4, Supplemental Table 2, Ki.
Where [7] appears, read: recombinant BodoCSP4, Supplemental Table 2, IC50, read-out: IC50.
[8] abbreviates: recombinant BodoCSP4, competitive with 1-NPN, values in text, read-out: binding affinity (Ki).

Values joined by “and” are separate entries in the source; they are usually repeats but may differ in a detail not shown here. Identical values can stand only once. Like-named read-outs stand apart in the source and are kept apart here.

Sequence of recombinant BodoCSP4 (A0A2S0X9L0 entry or part of it): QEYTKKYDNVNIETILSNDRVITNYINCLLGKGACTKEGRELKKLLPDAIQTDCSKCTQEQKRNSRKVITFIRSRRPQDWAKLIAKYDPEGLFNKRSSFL

As for `CC12CCC(CC1)C(C)(C)O2` [1,8-Cineole], the IC50 on recombinant BodoCSP4 was above 50 µM. In addition, the Ki at recombinant BodoCSP4 (setting [5]) was above 50 µM.

`c1ccc(Nc2cccc3ccccc23)cc1` [1-NPN, N-phenyl-1-naphthylamine, reference compound]: the Kd at recombinant BodoCSP4 turned out to be 1.08 µM.

As to `CCCCC(C)=O` [2-Hexanone], the concentration for half-maximal inhibition (IC50) at recombinant BodoCSP4 was above 50 µM. In addition, the Ki at recombinant BodoCSP4 (setting [6]) was above 50 µM.

As for `C=C(C)[C@H]1CC=C(C)CC1` [(R)-(+)-Limonene], the IC50 on recombinant BodoCSP4 (setting [7]) is above 50 µM. Besides, the Ki on recombinant BodoCSP4 (setting [5]) is above 50 µM.

Consider `CC(=O)c1ccccc1` [Acetophenone], for which the concentration for half-maximal inhibition (IC50) on recombinant BodoCSP4 was above 50 µM. For the same molecule, at recombinant BodoCSP4 (setting [5]), the inhibitory constant (Ki) was above 50 µM.

Take `CC(=O)/C=C/C1=C(C)CCCC1(C)C` [Beta-Ionone]: the IC50 at recombinant BodoCSP4 is above 50 µM. Besides, the Ki on recombinant BodoCSP4 (setting [6]) is above 50 µM.

`C=CC(=O)OCCCC` [Butyl Acrylate]: the concentration for half-maximal inhibition (IC50) at recombinant BodoCSP4 was above 50 µM. Further, at recombinant BodoCSP4 (setting [6]), the Ki is above 50 µM.

Take `CCCCOC(=O)CCC(C)=O` [Butyl levulinate]: the IC50 on recombinant BodoCSP4 (setting [7]) is above 50 µM. The Ki at recombinant BodoCSP4 (setting [5]) was above 50 µM.

On to `Cc1ccc(C(C)C)cc1O` [Carvaceol], for which, on recombinant BodoCSP4 (setting [7]), the IC50 was above 50 µM. Besides, at recombinant BodoCSP4 (setting [5]), the Ki was above 50 µM.

For the molecule `CC(C)=CCCC(C)CCO` (centres unmarked) [Citronellol], the IC50 on recombinant BodoCSP4 (setting [7]) is above 50 µM. The inhibitory constant (Ki) at recombinant BodoCSP4 (setting [5]) is above 50 µM.

`CCCCCCCCCC=O` [Decanal]: the IC50 on recombinant BodoCSP4 (setting [7]) was above 50 µM. Besides, the Ki on recombinant BodoCSP4 (setting [5]) was above 50 µM.

For the molecule `C=CCSSCC=C` [Diallyl disulfide], the “effect of silencing of BodoCSP1 on behavioral response of male adults” value in assay [1] is given as “reduced the behavioral response”. In addition, the “electrophysiological responses from the antennae” value in assay [2] is “strong electrophysiological responses”. The Ki at recombinant BodoCSP4 (binding affinity (Ki), recombinant BodoCSP4, competitive with 1-NPN, values in text) was 5.71 µM and < 10 µM. Further, in assay [3], the “effect of silencing of BodoCSP4 on behavioral response of male adults to the ligand” value (shortened to “effect of silencing of BodoCSP4”) is listed as “significantly decreased”. In addition, the figures for the “behavioral response (attraction to ligand vs hexane control)” value in assay [3] (dsBodoCSP4-treated adult males) and in assay [3] (dsGFP-treated adult males) were “no olfactory attraction” and “attracted”, respectively.

Consider `CCCCCCCCCCCC` [Dodecane], for which the IC50 at recombinant BodoCSP4 (setting [7]) was above 50 µM. Further, the Ki on recombinant BodoCSP4 (setting [5]) was above 50 µM.

On to `CCCCCCCCCCCC=O` [Dodecyl aldehyde], for which the IC50 on recombinant BodoCSP4 (setting [7]) is above 50 µM. In addition, the inhibition constant (Ki) at recombinant BodoCSP4 (setting [5]) was above 50 µM.

As to `CCCCCCCCCCCCCCCC` [Hexadecane], at recombinant BodoCSP4 (setting [7]), the half-inhibitory concentration (IC50) was above 50 µM. Besides, the Ki at recombinant BodoCSP4 (setting [5]) was above 50 µM.

For `C=CC(C)(O)CCC=C(C)C` (centres unmarked) [Linalool], the IC50 on recombinant BodoCSP4 is above 50 µM. Moreover, the Ki at recombinant BodoCSP4 (setting [6]) is above 50 µM.

For `C=CCSSC` [Methyl allyl disulfide], the “effect of silencing of BodoCSP1 on behavioral response of male adults” value in assay [1] is reported as “reduced the behavioral response”. The “electrophysiological responses from the antennae” value in assay [2] is recorded as “strong electrophysiological responses”. Besides, the Ki at recombinant BodoCSP4 (setting [8]) is 5.71 µM and < 10 µM. Also, the “effect of silencing of BodoCSP4” value in assay [3] is reported as “did not decrease”. In addition, the “behavioral response (attraction to ligand vs hexane control)” value in assay [3] (dsBodoCSP4-treated adult males) and in assay [3] (dsGFP-treated adult males) was “attracted” in each case.

As to `COC(=O)Cc1ccccc1` [Methyl phenylacetate], the IC50 on recombinant BodoCSP4 was above 50 µM. The Ki at recombinant BodoCSP4 (setting [6]) was above 50 µM.

Consider `CCCCCCCCC` [Nonane], for which the IC50 at recombinant BodoCSP4 (setting [7]) is above 50 µM. The Ki on recombinant BodoCSP4 (setting [5]) was above 50 µM.

For `C=CC(C)=CCC=C(C)C` [Ocimene], the half-inhibitory concentration (IC50) at recombinant BodoCSP4 (setting [7]) was above 50 µM. In addition, on recombinant BodoCSP4 (setting [5]), the Ki is above 50 µM.

In the case of `CCCCCCCC=O` [Octanal], the IC50 on recombinant BodoCSP4 (setting [7]) is above 50 µM. Also, the Ki at recombinant BodoCSP4 (setting [5]) is above 50 µM.

In the case of `CCCCCCCCCCCCCC` [Tetradecane], the IC50 on recombinant BodoCSP4 (setting [7]) is above 50 µM. The Ki at recombinant BodoCSP4 (setting [5]) was above 50 µM.

Take `CCCCC=O` [Valeric aldehyde]: the IC50 at recombinant BodoCSP4 (setting [7]) is above 50 µM. Also, on recombinant BodoCSP4 (setting [5]), the Ki was above 50 µM.

Take `C/C1=C\CC/C(C)=C/CC(C)(C)/C=C/C1` [a-Humulene]: the IC50 on recombinant BodoCSP4 (setting [7]) is above 50 µM. The Ki at recombinant BodoCSP4 (setting [5]) was above 50 µM.

Regarding `O=Cc1ccccc1` [benzaldehyde], the IC50 on recombinant BodoCSP4 was above 50 µM. In addition, on recombinant BodoCSP4 (setting [6]), the Ki is above 50 µM.

Turning to `CC/C=C\CCO` [cis-3-Hexen-1-ol], the IC50 at recombinant BodoCSP4 is above 50 µM. Moreover, on recombinant BodoCSP4 (setting [6]), the Ki is above 50 µM.

As to `CCCCCCC=O` [heptanal], at recombinant BodoCSP4, the IC50 is above 50 µM. The Ki at recombinant BodoCSP4 (setting [5]) is above 50 µM.

Take `CCCCCCCCCCCCCCCCC` [n-Heptadecane]: the Ki at recombinant BodoCSP4 (setting [8]) is 6.85 µM and < 10 µM. Further, in assay [4], the “behavioral response in male adults” value was “elicits a behavioral response”. The “effect of silencing of BodoCSP4” value in assay [3] was “significantly decreased”. For the same molecule, the “behavioral response (attraction to ligand vs hexane control)” value in assay [3] (dsBodoCSP4-treated adult males) was “no olfactory attraction”; in assay [3] (dsGFP-treated adult males), “attracted”.

On to `CCCCCCCCC=O` [nonanal], for which the IC50 on recombinant BodoCSP4 (setting [7]) is above 50 µM. For the same molecule, the inhibition constant (Ki) on recombinant BodoCSP4 (setting [5]) was above 50 µM.

On to `C=C1CC/C=C(/C)CC[C@@H]2[C@@H]1CC2(C)C` [ß-caryophyllene], for which the IC50 at recombinant BodoCSP4 (setting [7]) is above 50 µM. Also, on recombinant BodoCSP4 (setting [5]), the Ki is above 50 µM.

Take `C=C1CCC2CC1C2(C)C` (centres unmarked) [ß-pinene]: the IC50 at recombinant BodoCSP4 (setting [7]) was above 50 µM. Besides, the Ki at recombinant BodoCSP4 (setting [5]) is above 50 µM.

Turning to `c1ccc2[nH]ccc2c1` [(H-11)indole], the IC50 at recombinant BodoCSP4 (setting [7]) is above 50 µM. The Ki on recombinant BodoCSP4 (setting [5]) was above 50 µM.
